Results reported in patent US12162890B2 (Novartis AG, priority 2015, dated 2024).

Target: HEK293 cells with stable expression of the GRIN1 gene and tetracycline-inducible expression of the GRIN2B gene (NMDA receptor, NR2B) (Homo sapiens, UniProt Q13224)
Experiment: Fluo-8 Ca2+ flux assay: reversal of Ro 25-6981-mediated suppression of the Ca2+ response to co-agonist (glutamate/glycine); note: test concentration or dose not given here
Assay type: cell-based
Conditions: reversal of the Ro 25-6981 suppression of the Ca2+ response to co-agonist (glutamate/glycine)

Sequence of HEK293 cells with stable expression of the GRIN1 gene and tetracycline-inducible expression of the GRIN2B gene (NMDA receptor, NR2B) (Q13224 27-1484, other chains not shown): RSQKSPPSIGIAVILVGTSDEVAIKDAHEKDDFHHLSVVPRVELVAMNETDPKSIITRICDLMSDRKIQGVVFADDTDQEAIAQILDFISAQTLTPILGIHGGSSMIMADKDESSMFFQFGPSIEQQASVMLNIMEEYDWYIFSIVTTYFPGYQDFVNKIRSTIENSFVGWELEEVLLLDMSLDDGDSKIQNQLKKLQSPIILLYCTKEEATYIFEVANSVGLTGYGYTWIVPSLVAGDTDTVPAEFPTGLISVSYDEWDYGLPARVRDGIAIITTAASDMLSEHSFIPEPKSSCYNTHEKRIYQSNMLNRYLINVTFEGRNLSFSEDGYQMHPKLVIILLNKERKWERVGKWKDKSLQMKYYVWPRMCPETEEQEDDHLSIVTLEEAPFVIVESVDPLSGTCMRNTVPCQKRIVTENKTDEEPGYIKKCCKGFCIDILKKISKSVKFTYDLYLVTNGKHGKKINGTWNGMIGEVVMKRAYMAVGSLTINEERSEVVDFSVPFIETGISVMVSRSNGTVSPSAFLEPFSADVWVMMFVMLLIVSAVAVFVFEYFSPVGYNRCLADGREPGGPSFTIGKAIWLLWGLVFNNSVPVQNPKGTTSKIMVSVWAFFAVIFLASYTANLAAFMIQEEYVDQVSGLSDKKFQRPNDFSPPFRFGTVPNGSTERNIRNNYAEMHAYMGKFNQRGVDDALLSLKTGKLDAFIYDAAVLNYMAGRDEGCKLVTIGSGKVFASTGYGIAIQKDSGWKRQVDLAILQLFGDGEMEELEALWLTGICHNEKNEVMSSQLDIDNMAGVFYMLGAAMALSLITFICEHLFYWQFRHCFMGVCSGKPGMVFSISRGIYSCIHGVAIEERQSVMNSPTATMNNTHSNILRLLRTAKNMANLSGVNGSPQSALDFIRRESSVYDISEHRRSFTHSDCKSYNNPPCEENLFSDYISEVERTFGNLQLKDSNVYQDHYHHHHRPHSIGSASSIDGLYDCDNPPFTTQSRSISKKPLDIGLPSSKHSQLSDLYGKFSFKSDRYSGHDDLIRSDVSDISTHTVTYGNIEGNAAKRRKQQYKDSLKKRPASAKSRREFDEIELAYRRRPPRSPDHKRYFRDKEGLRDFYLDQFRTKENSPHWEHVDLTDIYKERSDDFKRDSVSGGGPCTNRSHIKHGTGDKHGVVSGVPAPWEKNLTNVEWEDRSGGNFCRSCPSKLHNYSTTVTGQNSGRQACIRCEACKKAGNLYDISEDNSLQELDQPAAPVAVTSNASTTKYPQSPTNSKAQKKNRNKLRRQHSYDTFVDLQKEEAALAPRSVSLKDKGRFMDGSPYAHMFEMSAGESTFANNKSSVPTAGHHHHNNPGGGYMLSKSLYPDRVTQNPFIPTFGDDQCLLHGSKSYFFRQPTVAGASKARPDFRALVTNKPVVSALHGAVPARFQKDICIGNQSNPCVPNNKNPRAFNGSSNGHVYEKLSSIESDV

Row | Compound | Response Recovered (%)
1 | COCc1cn(CC(=O)N2CCC(F)C2)c(=O)c2c(-c3ccc(F)c(Cl)c3)csc12 (stereo not shown) [Example 128, 3-(3-chloro-4-fluorophenyl)-5-(2-(3-fluoropyrrolidin-1-yl)-2-oxoethyl)-7-(methoxymethyl) thieno[3,2-c]pyridin-4(5H)-one] | 23%
2 | O=C(Cn1ccc2scc(-c3ccc(F)c(Cl)c3)c2c1=O)N1CCC(F)C1 (stereo not shown) [Example 9, 3-(3-Chloro-4-fluoro-phenyl)-5-[2-(3-fluoro-pyrrolidin-1-yl)-2-oxo-ethyl]-5H-thieno[3,2-c]pyridin-4-one] | 81%
3 | O=C(Cn1ccc2cccc(-c3ccc(Cl)c(F)c3)c2c1=O)N1CCC(F)C1 (stereo not shown) [Example 306, 8-(4-chloro-3-fluorophenyl)-2-(2-(3-fluoropyrrolidin-1-yl)-2-oxoethyl)isoquinolin-1(2H)-one] | 25%
4 | C[Si](C)(C)CCOCn1cc(-c2ccc(F)c(Cl)c2)c2c(=O)n(CC(=O)N3CC(F)(F)C3)ccc21 [Example 207, 3-(3-chloro-4-fluorophenyl)-5-(2-(3,3-difluoroazetidin-1-yl)-2-oxoethyl)-1-((2-(trimethylsilyl)ethoxy)methyl)-1H-pyrrolo[3,2-c]pyndin-4(5H)-one] | 69%
5 | Cc1cn(CC(=O)N2CCCC2)c(=O)c2c(-c3ccc(Cl)c(C(F)(F)F)c3)csc12 [Example 106, 3-(4-chloro-3-(trifluoromethyl)phenyl)-7-methyl-5-(2-oxo-2-(pyrrolidin-1-yl)ethyl)thieno[3,2-c]pyridin-4(5H)-one] | 76%
6 | O=C(Cn1ccc2scc(-c3ccc(Cl)c(Cl)c3)c2c1=O)N1CC(F)(CF)C1 [Example 82, 3-(3,4-dichlorophenyl)-5-(2-(3-fluoro-3-(fluoromethyl)azetidin-1-yl)-2-oxoethyl)thieno[3,2-c]pyridin-4(5H)-one] | 140%
7 | O=C(Cn1ccc2scc(-c3ccc(F)c(Cl)c3)c2c1=O)N1CC2(COC2)C1 [Example 67, 3-(3-chloro-4-fluroophenyl)-5-(2-oxo-2-(2-oxa-6-azaspiro[3.3]heptan-6-yl)ethyl)thieno[3,2-c]pyridin-4(5H)-one] | 4.4%
8 | O=C(Cn1cnc2[nH]cc(-c3cnc(Cl)c(Cl)c3)c2c1=O)N1CCC(F)C1 (stereo not shown) [Example 180, 5-(5,6-dichloropyridin-3-yl)-3-(2-(3-fluoropyrrolidin-1-yl)-2-oxoethyl)-3H-pyrrolo[2,3-d]pyrimidin-4(7H)-one] | 15%
9 | O=C(Cn1ccc2scc(-c3ccc(Cl)c(Cl)c3)c2c1=O)N1C[C@@H](F)[C@@H](F)C1 [Example 16, 3-(3,4-dichlorophenyl)-5-(2-((3S,4R)-3,4-difluoropyrrolidin-1-yl)-2-oxoethyl)thieno[3,2-c]pyridin-4(5H)-one] | 107%
10 | O=C(Cn1cc(CN2CCCC2)c2scc(-c3ccc(F)c(Cl)c3)c2c1=O)N1CCC(F)C1 (stereo not shown) [Example 119, 3-(3-chloro-4-fluorophenyl)-5-(2-(3-fluoropyrrolidin-1-yl)-2-oxoethyl)-7-(pyrrolidin-1-ylmethyl)thieno[3,2-c]pyridin-4(5H)-one] | 75%
11 | Cc1cn(CC(=O)N2CCC(F)C2)c(=O)n2c(-c3ccc(Cl)c(Cl)c3)cnc12 (stereo not shown) [Example 453, 3-(3,4-dichlorophenyl)-6-(2-(3-fluoropyrrolidin-1-yl)-2-oxoethyl)-8-methylimidazo[1,2-c]pyrimidin-5(6H)-one] | 26%
12 | Cn1cc(-c2ccc(Cl)cc2)c2c(=O)n(CC(=O)N3CCCC3)cnc21 [Example 151, 5-(4-chlorophenyl)-7-methyl-3-(2-oxo-2-(pyrrolidin-1-yl)ethyl)-3H-pyrrolo[2,3-d]pyrimidin-4(7H)-one] | 17%
13 | Cc1cn(CC(=O)N2CC(C)(F)C2)c(=O)c2c(-c3cnc(Cl)c(Cl)c3)ccn12 [Example 420, 8-(5,6-dichloropyridin-3-yl)-2-(2-(3-fluoro-3-methylazetidin-1-yl)-2-oxoethyl)-4-methylpyrrolo[1,2-a]pyrazin-1(2H)-one] | 69%
14 | CC1(F)CN(C(=O)Cn2ccc3c(c(-c4ccc(F)c(C(F)(F)F)c4)cn3C3CC3)c2=O)C1 [Example 287, 1-cyclopropyl-3-(4-fluoro-3-(trifluoromethyl)phenyl)-5-(2-(3-fluoro-3-methylazetidin-1-yl)-2-oxoethyl)-1H-pyrrolo[3,2-c]pyridin-4(5H)-one] | 140%
15 | O=C(Cn1cc(CO)c2scc(-c3ccc(F)c(C(F)(F)F)c3)c2c1=O)N1CCC(F)C1 (stereo not shown) [Example 111, 3-(4-fluoro-3-(trifluoromethyl)phenyl)-5-(2-(3-fluoropyrrolidin-1-yl)-2-oxoethyl)-7-(hydroxymethyl)thieno[3,2-c]pyridin-4(5H)-one] | 97%
16 | O=C(Cn1ccc2ccc(-c3ccc(Cl)c(C(F)(F)F)c3)cc2c1=O)N1CC(F)(F)C1 [Example 312, 7-(4-chloro-3-(trifluoromethyl)phenyl)-2-(2-(3,3-difluoroazetidin-1-yl)-2-oxoethyl)isoquinolin-1(2H)-one] | 3%
17 | O=C(Cn1ccn2ccc(-c3ccc(Cl)c(Cl)c3)c2c1=O)N1CCCC1 [Example 394, 8-(3,4-dichlorophenyl)-2-(2-oxo-2-(pyrrolidin-1-yl)ethyl)pyrrolo[1,2-a]pyrazin-1(2H)-one] | 62%
18 | O=C(Cn1ccc2scc(-c3ccc(F)c(C(F)(F)F)c3)c2c1=O)N1CC(F)(CF)C1 [Example 83, 5-(2-(3-fluoro-3-(fluoromethyl)azetidin-1-yl)-2-oxoethyl)-3-(4-fluoro-3-(trifluoromethyl)phen-yl)thieno[3,2-c]pyridin-4(5H)-one] | 140%
19 | CC1(F)CN(C(=O)Cn2ccn3c(C4CC4)nc(-c4cnc(Cl)c(Cl)c4)c3c2=O)C1 [Example 437, 3-cyclopropyl-1-(5,6-dichloropyridin-3-yl)-7-(2-(3-fluoro-3-methylazetidin-1-yl)-2-oxoethyl)imidazo[1,5-a]pyrazin-8(7H)-one] | 65%
20 | Cc1cc(-c2csc3ccn(CC(=O)N4CC(C)(F)C4)c(=O)c23)cnc1F [Example 87, 5-(2-(3-fluoro-3-methylazetidin-1-yl)-2-oxoethyl)-3-(6-fluoro-5-methylpyridin-3-yl)thieno[3,2-c]pyridin-4(5H)-one] | −4.2%
21 | CC1(N)CN(C(=O)Cn2ccc3scc(-c4ccc(F)c(C(F)(F)F)c4)c3c2=O)C1 [Example 96, 5-(2-(3-amino-3-methylazetidin-1-yl)-2-oxoethyl)-3-(4-fluoro-3-(trifluoromethyl)phenyl)thieno[3,2-c]pyridin-4(5H)-one] | 43%

Other lines, results leading:

Row | Response Recovered (%) | Compound
22 | 2% | O=C(Cn1cnc2snc(-c3ccc(Cl)cc3)c2c1=O)N1CC(F)(F)C1 [Example 381, 3-(4-chlorophenyl)-5-(2-(3,3-difluoroazetidin-1-yl)-2-oxoethyl)isothiazolo[5,4-d]pyrimidin-4(5H)-one]
23 | 73% | CC1(F)CN(C(=O)Cn2ccc3c(c(-c4ccc(F)c(Cl)c4)cn3CC(F)(F)F)c2=O)C1 [Example 280, 3-(3-chloro-4-fluorophenyl)-5-(2-(3-fluoro-3-methylazetidin-1-yl)-2-oxoethyl)-1-(2,2,2-trifluoroethyl)-1H-pyrrolo[3,2-c]pyridin-4(5H)-one]
24 | 101% | O=C(Cn1ccc2[nH]cc(-c3ccc(F)c(C(F)(F)F)c3)c2c1=O)N1CC(F)(F)C1 [Example 216, 5-(2-(3,3-difluoroazetidin-1-yl)-2-oxoethyl)-3-(4-fluoro-3-(trifluoromethyl)phenyl)-1H-pyrrolo[3,2-c]pyridin-4(5H)-one]
25 | 29% | O=C(Cn1ccn2ncc(-c3ccc(F)c(Cl)c3)c2c1=O)N1CC(F)(F)C1 [Example 328, 3-(3-chloro-4-fluorophenyl)-5-(2-(3,3-difluoroazetidin-1-yl)-2-oxoethyl)pyrazolo[1,5-a]pyrazin-4(5H)-one]
26 | 9% | O=C(Cn1cnc2[nH]nc(-c3ccc(Cl)c(C(F)(F)F)c3)c2c1=O)N1CC(F)(F)C1 [Example 320, 3-(4-Chloro-3-trifluoromethyl-phenyl)-5-[2-(3,3-difluoro-azetidin-1-yl)-2-oxo-ethyl]-1,5-dihydro-pyrazolo[3,4-d]pyrimidin-4-one]
27 | 107% | O=C(Cn1ccc2[nH]cc(-c3ccc(Cl)c(C(F)(F)F)c3)c2c1=O)N1CC(F)(F)C1 [Example 212, 3-(4-chloro-3-(trifluoromethyl)phenyl)-5-(2-(3,3-difluoroazetidin-1-yl)-2-oxoethyl)-1H-pyrrolo[3,2-c]pyridin-4(5H)-one]
28 | 130% | Cn1cnc(-n2cc(-c3ccc(F)c(Cl)c3)c3c(=O)n(CC(=O)N4CC(C)(F)C4)ccc32)n1 [Example 269, 3-(3-chloro-4-fluorophenyl)-5-(2-(3-fluoro-3-methylazetidin-1-yl)-2-oxoethyl)-1-(1-methyl-1H-1,2,4-triazol-3-yl)-1H-pyrrolo[3,2-c]pyridin-4(5H)-one]
29 | 48% | CCn1cc(-c2ccc(F)c(Cl)c2)c2c(=O)n(CC(=O)N3CC(F)(F)C3)cnc21 [Example 163, 5-(3-chloro-4-fluorophenyl)-3-(2-(3,3-difluoroazetidin-1-yl)-2-oxoethyl)-7-ethyl-3H-pyrrolo[2,3-d]pyrimidin-4(7H)-one]
30 | 74% | CCC1(F)CN(C(=O)Cn2cc(C)n3ccc(-c4ccc(F)c(Cl)c4)c3c2=O)C1 [Example 418, 8-(3-chloro-4-fluorophenyl)-2-(2-(3-ethyl-3-fluoroazetidin-1-yl)-2-oxoethyl)-4-methylpyrrolo[1,2-a]pyrazin-1(2H)-one]
31 | 58% | O=C(Cn1cnc2[nH]cc(-c3ccc(F)c(Cl)c3)c2c1=O)N1CC(F)(F)C1 [Example 161, 5-(3-chloro-4-fluorophenyl)-3-(2-(3,3-difluoroazetidin-1-yl)-2-oxoethyl)-3H-pyrrolo[2,3-d]pyrimidin-4(7H)-onepyrrolo[2,3-d]pyrimidin-4(7H)-one]
